In patent US12139480B2, “5-thiazolecarboxamide kinase inhibitor and uses thereof” (iOmx Therapeutics AG, priority 2018, dated 2024):
Where two headings read alike, the source gives them in different places.

Tests used:
KU812 tumours = conditions: large KU812 tumours (up to >1 g); 50 mg/kg/day for 5 days; cited from earlier work
K562 CML cells = conditions: cited from earlier work
ACV-R2B = ACV-R2B (Homo sapiens, UniProt Q13705); assay: biochemical; conditions: read-out: % residual activity class (FIG. 3)
p38-beta = p38-beta (Homo sapiens, UniProt Q15759); assay: biochemical; conditions: read-out: % residual activity class (FIG. 3)
ERBB2 = ERBB2 (Homo sapiens, UniProt P04626); assay: single-point (1 uM) inhibition assay (ProQinase Kinase Profiler); assay type: biochemical; conditions: read-out: % residual activity class (FIG. 3)
JAK1 aa583-1154 wt = biological target: T1, JAK1 aa583-1154 wt (Homo sapiens, UniProt P23458); assay: as above; assay type: biochemical
T1 construct: JAK1 aa583-1154 wt; purchased ProQinase, Freiburg, Germany (Kinase Profiler panel)

[1] = cited from earlier work
hERG potassium channel = hERG potassium channel (Homo sapiens, UniProt Q12809); conditions: page 31, NDA 21-986, cited from earlier work
hERG potassium channel, sequence (Q12809 whole entry): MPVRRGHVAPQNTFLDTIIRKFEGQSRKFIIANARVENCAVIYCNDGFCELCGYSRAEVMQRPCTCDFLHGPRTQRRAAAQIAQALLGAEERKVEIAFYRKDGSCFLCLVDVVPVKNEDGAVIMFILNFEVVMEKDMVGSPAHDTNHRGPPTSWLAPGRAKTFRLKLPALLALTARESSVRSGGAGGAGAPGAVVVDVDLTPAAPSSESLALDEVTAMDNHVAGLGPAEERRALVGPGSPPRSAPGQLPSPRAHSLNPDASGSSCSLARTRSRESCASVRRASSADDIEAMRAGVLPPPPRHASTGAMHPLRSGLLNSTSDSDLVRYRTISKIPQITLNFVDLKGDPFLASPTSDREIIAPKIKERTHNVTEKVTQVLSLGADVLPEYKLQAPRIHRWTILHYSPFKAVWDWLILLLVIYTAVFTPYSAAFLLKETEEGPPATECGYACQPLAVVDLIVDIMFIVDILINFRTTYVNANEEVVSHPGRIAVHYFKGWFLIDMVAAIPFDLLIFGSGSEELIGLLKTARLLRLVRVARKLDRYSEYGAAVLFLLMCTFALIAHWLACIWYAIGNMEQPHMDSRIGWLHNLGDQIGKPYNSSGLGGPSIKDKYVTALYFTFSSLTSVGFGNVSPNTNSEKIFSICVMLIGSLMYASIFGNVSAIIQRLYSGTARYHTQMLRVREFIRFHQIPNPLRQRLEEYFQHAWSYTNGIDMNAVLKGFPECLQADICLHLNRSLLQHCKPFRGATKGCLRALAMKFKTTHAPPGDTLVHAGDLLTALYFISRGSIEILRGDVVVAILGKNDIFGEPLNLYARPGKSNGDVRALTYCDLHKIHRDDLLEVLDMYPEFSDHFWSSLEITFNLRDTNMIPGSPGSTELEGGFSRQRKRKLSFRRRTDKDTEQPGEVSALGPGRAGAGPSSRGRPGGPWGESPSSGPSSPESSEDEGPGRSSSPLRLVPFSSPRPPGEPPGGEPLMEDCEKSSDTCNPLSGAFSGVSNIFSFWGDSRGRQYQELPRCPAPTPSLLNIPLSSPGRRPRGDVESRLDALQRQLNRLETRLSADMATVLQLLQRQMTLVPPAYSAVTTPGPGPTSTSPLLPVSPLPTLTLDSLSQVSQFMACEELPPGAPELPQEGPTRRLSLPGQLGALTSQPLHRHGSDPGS

BMPR1A = biological target: T2, BMPR1A (Homo sapiens, UniProt P36894); assay: single-point (1 uM) inhibition assay (ProQinase Kinase Profiler); assay type: biochemical
T2 construct: purchased ProQinase, Freiburg, Germany (Kinase Profiler panel)
T2 sequence (P36894 24-532): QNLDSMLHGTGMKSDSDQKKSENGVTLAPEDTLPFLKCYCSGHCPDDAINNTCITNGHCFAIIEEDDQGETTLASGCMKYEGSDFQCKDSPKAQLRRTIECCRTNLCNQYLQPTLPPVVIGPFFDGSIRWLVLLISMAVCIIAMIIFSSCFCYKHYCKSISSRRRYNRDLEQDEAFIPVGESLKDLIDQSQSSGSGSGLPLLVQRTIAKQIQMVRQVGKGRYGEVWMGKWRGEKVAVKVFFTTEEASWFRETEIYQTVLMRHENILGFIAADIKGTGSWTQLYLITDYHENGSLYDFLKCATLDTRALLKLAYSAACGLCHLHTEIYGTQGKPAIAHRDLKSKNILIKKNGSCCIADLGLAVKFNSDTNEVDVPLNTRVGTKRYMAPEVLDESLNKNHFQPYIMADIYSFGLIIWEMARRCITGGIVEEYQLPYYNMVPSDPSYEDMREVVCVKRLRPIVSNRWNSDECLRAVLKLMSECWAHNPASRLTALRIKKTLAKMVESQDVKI

EPHA6 = EPHA6 (Homo sapiens, UniProt Q9UF33); assay: as above; assay type: biochemical; conditions: 1 uM compound, read-out: % residual activity class (FIG. 3)
EPHA2 = biological target: T3, EPHA2 (Homo sapiens, UniProt P29317); assay: as above; assay type: biochemical
T3 construct: purchased ProQinase
T3 sequence (P29317 24-976): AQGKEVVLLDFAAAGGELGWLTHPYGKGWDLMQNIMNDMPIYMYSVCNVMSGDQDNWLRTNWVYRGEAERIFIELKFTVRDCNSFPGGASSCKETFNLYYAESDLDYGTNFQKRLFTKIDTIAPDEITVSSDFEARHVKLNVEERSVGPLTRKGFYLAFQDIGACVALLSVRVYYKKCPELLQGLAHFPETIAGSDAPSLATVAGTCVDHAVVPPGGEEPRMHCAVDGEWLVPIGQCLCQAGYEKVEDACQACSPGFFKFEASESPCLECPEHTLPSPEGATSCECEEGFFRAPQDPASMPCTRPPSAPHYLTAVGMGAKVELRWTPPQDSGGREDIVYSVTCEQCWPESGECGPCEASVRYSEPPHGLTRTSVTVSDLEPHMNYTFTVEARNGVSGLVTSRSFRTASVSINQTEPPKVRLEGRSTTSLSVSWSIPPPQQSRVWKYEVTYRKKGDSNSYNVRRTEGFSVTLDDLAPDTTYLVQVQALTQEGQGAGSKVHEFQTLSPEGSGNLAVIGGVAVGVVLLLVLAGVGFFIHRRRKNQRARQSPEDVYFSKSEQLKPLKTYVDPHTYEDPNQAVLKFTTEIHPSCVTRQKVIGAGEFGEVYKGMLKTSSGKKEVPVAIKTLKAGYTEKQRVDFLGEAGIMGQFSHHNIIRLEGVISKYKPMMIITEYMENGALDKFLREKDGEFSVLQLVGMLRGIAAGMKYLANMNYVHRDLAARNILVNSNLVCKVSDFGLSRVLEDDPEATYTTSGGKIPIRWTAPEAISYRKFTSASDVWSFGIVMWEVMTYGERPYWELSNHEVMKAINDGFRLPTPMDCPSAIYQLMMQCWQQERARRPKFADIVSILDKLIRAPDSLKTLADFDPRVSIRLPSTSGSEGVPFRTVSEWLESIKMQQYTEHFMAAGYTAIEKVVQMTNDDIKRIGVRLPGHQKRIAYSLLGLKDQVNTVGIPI

TGFB-R1 = biological target: T4, TGFB-R1 (Homo sapiens, UniProt P36897); assay: as above; assay type: biochemical; conditions: 1 uM compound, read-out: % residual activity class (FIG. 3)
T4 construct: purchased ProQinase
T4 sequence (P36897 34-503): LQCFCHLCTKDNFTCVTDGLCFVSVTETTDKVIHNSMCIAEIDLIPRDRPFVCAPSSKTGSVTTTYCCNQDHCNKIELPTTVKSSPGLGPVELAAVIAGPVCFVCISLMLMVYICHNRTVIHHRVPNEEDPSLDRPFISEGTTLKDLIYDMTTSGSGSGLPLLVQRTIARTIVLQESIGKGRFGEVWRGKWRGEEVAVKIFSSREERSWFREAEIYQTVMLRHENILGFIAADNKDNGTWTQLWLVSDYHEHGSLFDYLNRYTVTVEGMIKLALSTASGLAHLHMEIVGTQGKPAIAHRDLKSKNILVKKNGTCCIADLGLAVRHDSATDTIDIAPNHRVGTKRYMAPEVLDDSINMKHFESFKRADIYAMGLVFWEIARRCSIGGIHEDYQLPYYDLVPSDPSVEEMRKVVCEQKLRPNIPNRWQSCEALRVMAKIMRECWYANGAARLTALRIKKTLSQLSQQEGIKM

YES = biological target: T5, YES (Homo sapiens, UniProt P07947); assay: as above; assay type: biochemical; conditions: 1 uM compound, read-out: % residual activity class (FIG. 3)
T5 construct: purchased ProQinase

[2] = human liver microsomal stability; assay type: in vitro ADME
ABL1 = biological target: T6, ABL1 (Homo sapiens, UniProt P00519); assay: biochemical; conditions: 1 uM compound, read-out: % residual activity class (FIG. 3)
T6 construct: purchased ProQinase

RAF1 = assay: single-point (1 uM) inhibition assay (ProQinase Kinase Profiler); assay type: biochemical; conditions: 1 uM compound
ERBB4 = biological target: T7, ERBB4 (Homo sapiens, UniProt Q15303); assay: as above; assay type: biochemical; conditions: 1 uM compound, read-out: % residual activity class (FIG. 3)
T7 construct: purchased ProQinase

EPHA8 = biological target: T8, EPHA8 (Homo sapiens, UniProt P29322); assay: as above; assay type: biochemical
T8 construct: purchased ProQinase
T8 sequence (P29322 28-1005): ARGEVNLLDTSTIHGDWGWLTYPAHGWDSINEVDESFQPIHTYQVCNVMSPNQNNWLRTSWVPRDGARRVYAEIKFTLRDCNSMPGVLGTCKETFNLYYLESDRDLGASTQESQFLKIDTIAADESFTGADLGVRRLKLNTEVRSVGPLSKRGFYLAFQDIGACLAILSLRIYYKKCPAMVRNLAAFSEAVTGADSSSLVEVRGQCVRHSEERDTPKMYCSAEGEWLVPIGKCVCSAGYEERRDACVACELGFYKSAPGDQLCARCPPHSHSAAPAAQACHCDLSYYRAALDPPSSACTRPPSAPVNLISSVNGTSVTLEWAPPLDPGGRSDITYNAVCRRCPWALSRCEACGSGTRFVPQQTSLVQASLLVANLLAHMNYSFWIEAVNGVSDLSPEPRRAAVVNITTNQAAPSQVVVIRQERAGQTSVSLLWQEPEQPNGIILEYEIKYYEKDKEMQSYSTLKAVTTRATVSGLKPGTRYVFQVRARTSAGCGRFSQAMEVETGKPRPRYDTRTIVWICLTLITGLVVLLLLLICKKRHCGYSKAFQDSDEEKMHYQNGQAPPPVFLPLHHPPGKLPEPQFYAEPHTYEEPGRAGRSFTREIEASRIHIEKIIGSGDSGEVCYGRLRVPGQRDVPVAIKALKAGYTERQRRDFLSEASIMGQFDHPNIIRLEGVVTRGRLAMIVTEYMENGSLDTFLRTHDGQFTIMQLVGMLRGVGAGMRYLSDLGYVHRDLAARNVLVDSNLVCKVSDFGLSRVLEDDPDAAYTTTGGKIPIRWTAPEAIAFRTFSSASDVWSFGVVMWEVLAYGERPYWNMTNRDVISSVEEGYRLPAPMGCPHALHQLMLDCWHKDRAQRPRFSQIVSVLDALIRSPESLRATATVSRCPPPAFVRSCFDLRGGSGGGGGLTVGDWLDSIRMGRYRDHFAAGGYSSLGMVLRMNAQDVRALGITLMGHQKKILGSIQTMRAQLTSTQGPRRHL

ACV-R2A = biological target: T9, ACV-R2A (Homo sapiens, UniProt P27037); assay: as above; assay type: biochemical; conditions: 1 uM compound, read-out: % residual activity class (FIG. 3)
T9 construct: purchased ProQinase

BMX = biological target: T10, BMX (Homo sapiens, UniProt P51813); assay: as above; assay type: biochemical; conditions: 1 uM compound, read-out: % residual activity class (FIG. 3)
T10 construct: purchased ProQinase

BTK = biological target: T11, BTK (Homo sapiens, UniProt Q06187); assay: as above; assay type: biochemical; conditions: 1 uM compound, read-out: % residual activity class (FIG. 3)
T11 construct: purchased ProQinase

BRK = biological target: T12, BRK (Homo sapiens, UniProt Q13882); assay: as above; assay type: biochemical; conditions: 1 uM compound, read-out: % residual activity class (FIG. 3)
T12 construct: purchased ProQinase

B-RAF = biological target: T13, B-RAF (Homo sapiens, UniProt P15056); assay: as above; assay type: biochemical
T13 construct: purchased ProQinase

EPHB4 = biological target: T14, EPHB4 (Homo sapiens, UniProt P54760); assay: biochemical
T14 construct: purchased ProQinase

EPHA5 = biological target: T15, EPHA5 (Homo sapiens, UniProt P54756); assay: single-point (1 uM) inhibition assay (ProQinase Kinase Profiler); assay type: biochemical
T15 construct: purchased ProQinase
T15 sequence (P54756 25-1037): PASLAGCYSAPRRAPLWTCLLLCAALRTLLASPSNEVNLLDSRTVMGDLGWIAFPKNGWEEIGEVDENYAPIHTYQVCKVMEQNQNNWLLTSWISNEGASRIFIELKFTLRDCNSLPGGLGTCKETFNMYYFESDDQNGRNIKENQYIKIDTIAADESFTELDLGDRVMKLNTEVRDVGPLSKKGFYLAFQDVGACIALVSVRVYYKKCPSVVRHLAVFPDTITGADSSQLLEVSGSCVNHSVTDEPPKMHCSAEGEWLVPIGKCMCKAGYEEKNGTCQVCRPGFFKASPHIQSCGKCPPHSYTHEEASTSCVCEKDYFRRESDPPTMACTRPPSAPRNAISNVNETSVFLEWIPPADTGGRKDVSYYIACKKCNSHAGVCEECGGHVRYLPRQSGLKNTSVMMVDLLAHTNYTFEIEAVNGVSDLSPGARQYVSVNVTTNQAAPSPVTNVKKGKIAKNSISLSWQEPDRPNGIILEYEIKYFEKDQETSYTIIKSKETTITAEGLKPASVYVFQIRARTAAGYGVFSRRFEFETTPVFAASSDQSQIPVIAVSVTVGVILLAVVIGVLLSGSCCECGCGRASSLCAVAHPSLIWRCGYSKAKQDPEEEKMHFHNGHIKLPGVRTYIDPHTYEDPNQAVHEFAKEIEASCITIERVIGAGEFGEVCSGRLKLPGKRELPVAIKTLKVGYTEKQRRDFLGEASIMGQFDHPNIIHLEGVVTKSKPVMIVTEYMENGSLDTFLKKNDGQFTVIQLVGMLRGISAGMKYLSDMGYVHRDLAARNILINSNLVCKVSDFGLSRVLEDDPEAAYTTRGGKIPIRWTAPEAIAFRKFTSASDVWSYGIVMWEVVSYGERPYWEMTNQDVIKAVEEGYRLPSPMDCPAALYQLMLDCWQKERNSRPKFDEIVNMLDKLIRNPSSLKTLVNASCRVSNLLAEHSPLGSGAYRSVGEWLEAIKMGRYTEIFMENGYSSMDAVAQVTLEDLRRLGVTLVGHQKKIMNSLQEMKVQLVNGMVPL

EPHB3 = biological target: T16, EPHB3 (Homo sapiens, UniProt P54753); assay: as above; assay type: biochemical
T16 construct: purchased ProQinase

EGF-R = biological target: T17, EGF-R (Homo sapiens, UniProt P00533); assay: as above; assay type: biochemical; conditions: 1 uM compound, read-out: % residual activity class (FIG. 3)
T17 construct: purchased ProQinase

KIT = biological target: T18, KIT (Homo sapiens, UniProt P10721); assay: as above; assay type: biochemical
T18 construct: purchased ProQinase

EPHA1 = biological target: T19, EPHA1 (Homo sapiens, UniProt P21709); assay: as above; assay type: biochemical
T19 construct: purchased ProQinase

[3] = read-out: % residual activity class (FIG. 3)
[4] = read-out: Residual activity (%) at 1 uM

In the case of `Cc1nc(Nc2ncc(C(=O)Nc3c(C)cccc3Cl)s2)cc(N2CCN(CCO)CC2)n1` [Compound A8, N-(2-chloro-6-methylphenyl)-2-((6-(4-(2-hydroxyethyl)piperazin-1-yl)-2-methylpyrimidin-4-yl)amino)thiazole-5-carboxamide, reference compound], the tumour response (KU812 tumours) is listed as “curative”, the survival (K562 CML cells; 10 mg/kg/day) is listed as “increased survival” and the “survival / intracranial tumour growth” value (K562 CML cells; similar study, dasatinib 10 and 30 mg/kg/day, imatinib 200 mg/kg/day) is listed as “increased survival”. The remaining activity at 1 µM (ACV-R2B) was < 25%, the remaining activity at 1 µM (p38-beta) was < 25% and the remaining activity at 1 µM (ERBB2) was 25 to 50%. The remaining activity at 1 µM (JAK1 aa583-1154 wt; [3]) was 25 to 50%, the remaining activity at 1 µM (JAK1 aa583-1154 wt; [4]) was 41% and the cardiac adverse reactions ([1]; 258 patients taking dasatinib) was 5.8 % of patients. For the same compound, the “cardiomyopathy, heart failure congestive, diastolic dysfunction, fatal myocardial infarction, and left ventricular dysfunction” value ([1]; 258 patients taking dasatinib) was 1.6 % of patients, the “other cases of severe haemorrhage” value ([1]; all clinical studies) was 2 % of patients and the “severe central nervous system (CNS) haemorrhages (including fatalities)” value ([1]; all clinical studies) was 1 % of patients. For the same compound, the “severe gastrointestinal haemorrhage, including fatalities” value ([1]; all clinical studies) was 4 % of patients, the QT prolongation ([1]; clinical trials) was “up to 1 % of CML patients” and the severe fluid retention ([1]; clinical trials) was “up to 10 % of patients”. The “inhibition of hERG currents” value (hERG potassium channel; 3 uM) was “about 6%”, the “inhibition of hERG currents” value (hERG potassium channel; 10 uM) was ~36% and the remaining activity at 1 µM (BMPR1A; BMPR1A, 1 uM compound, read-out: % residual activity class (FIG. 3)) was 25 to 50%. It also gave a remaining activity at 1 µM (BMPR1A; [4]) of 42% and a remaining activity at 1 µM (EPHA6) of 25 to 50%.
With `Cc1nc(Nc2ncc(C(=O)Nc3c(Cl)ccnc3C)s2)cc(N2CCN(CCO)CC2)n1` [Compound B3, N-(4-chloro-2-methylpyridin-3-yl)-2-((6-(4-(2-hydroxyethyl)piperazin-1-yl)-2-methylpyrimidin-4-yl)amino)thiazole-5-carboxamide] the remaining activity at 1 µM (EPHA2; [3]) was < 25%, the remaining activity at 1 µM (EPHA2; [4]) was 0% and the remaining activity at 1 µM (TGFB-R1) was 25 to 50%. The remaining activity at 1 µM (YES) was < 25%, the Half-life [2] was 58 min and the remaining activity at 1 µM (ABL1) was < 25%. For the same compound, the “% residual activity class (FIG. 3)” value (RAF1) was “*** (25% to <50% residual activity)”, the remaining activity at 1 µM (ERBB4) was < 25% and the remaining activity at 1 µM (EPHA8; [3]) was < 25%. For the same compound, the remaining activity at 1 µM (EPHA8; [4]) was 3%, the remaining activity at 1 µM (ACV-R2A) was 25 to 50% and the remaining activity at 1 µM (BMX) was < 25%. The remaining activity at 1 µM (BTK) was < 25%, the remaining activity at 1 µM (BRK) was < 25% and the remaining activity at 1 µM (B-RAF; [3]) was 25 to 50%. The remaining activity at 1 µM (B-RAF; [4]) was ~50%, the remaining activity at 1 µM (EPHB4; EPHB4, 1 uM compound, read-out: % residual activity class (FIG. 3)) was < 25% and the remaining activity at 1 µM (EPHB4; [4]) was 1%. The remaining activity at 1 µM (EPHA5; [3]) was < 25%, the remaining activity at 1 µM (EPHA5; [4]) was 1% and the remaining activity at 1 µM (EPHB3; [3]) was < 25%. For the same compound, the remaining activity at 1 µM (EPHB3; [4]) was 3%, the remaining activity at 1 µM (EGF-R) was 25 to 50% and the remaining activity at 1 µM (KIT; [3]) was < 25%. The remaining activity at 1 µM (KIT; [4]) was 5%, the remaining activity at 1 µM (EPHA1; [3]) was < 25% and the remaining activity at 1 µM (EPHA1; [4]) was 3%.
